Tests used:
Gaeumannomyces graminis = test: Fungicidal activity against Gaeumannomyces graminis / liquid culture (take-all of cereals); format: cell-based; conditions: 4-5 days after application, read-out: disease control (inhibition of growth, photometrically)
Protocol: Fungicidal Activity Against Gaeumannomyces graminis/Liquid Culture (Take-all of Cereals) Mycelial fragments of the fungus from cryogenic storage were directly mixed into nutrient broth (PDB potato dextrose broth). After placing a (DMSO) solution of test compound into a microtiter plate (96-well format), the nutrient broth containing the fungal spores iss added. The test plates were incubated at 24° C. and the inhibition of growth was determined photometrically 4-5 days after application.

Pyrenophora teres = test: Fungicidal activity against Pyrenophora teres / barley / leaf disc preventative (net blotch); format: in vivo; conditions: foliar, barley leaf segments, inoculated 2 days after application, compared to untreated, read-out: disease control
Protocol: Fungicidal Activity Against Pyrenophora teres/Barley/Leaf Disc Preventative (Net Blotch) Barley leaf segments cv. Hasso were placed on agar in a multiwell plate (24-well format) and sprayed with the formulated test compound diluted in water. The leaf segments were inoculated with a spore suspension of the fungus 2 days after application. The inoculated leaf segments were incubated at 20° C. and 65% rh under a light regime of 12 h light/12 h darkness in a climate cabinet and the activity of a compound was assessed as disease control compared to untreated when an appropriate level of disease damage appears in untreated check leaf segments (5-7 days after application).

[1] = tested on: Blumeria graminis f. Sp. tritici (Erysiphe graminis f. sp. tritici); test: Fungicidal activity against Blumeria graminis f. sp. tritici / wheat / leaf disc preventative (powdery mildew on wheat); format: in vivo; conditions: foliar, wheat leaf segments, inoculated 1 day after application, compared to untreated, read-out: disease control
Protocol: Fungicidal Activity Against Blumeria graminis f. Sp. tritici (Erysiphe graminis f. sp. tritici)/Wheat/Leaf Disc Preventative (Powdery Mildew on Wheat)
Wheat leaf segments cv. Kanzler were placed on agar in a multiwell plate (24-well format) and sprayed with the formulated test compound diluted in water. The leaf disks were inoculated by shaking powdery mildew infected plants above the test plates 1 day after application. The inoculated leaf disks were incubated at 20° C. and 60% rh under a light regime of 24 h darkness followed by 12 h light/12 h darkness in a climate chamber and the activity of a compound was assessed as percent disease control compared to untreated when an appropriate level of disease damage appears on untreated check leaf segments (6-8 days after application).

[2] = tested on: Phaeosphaeria nodorum (Septoria nodorum); test: Fungicidal activity against Phaeosphaeria nodorum (Septoria nodorum) / wheat / leaf disc preventative (glume blotch); format: in vivo; conditions: Parastagonospora nodorum, foliar, wheat leaf segments, inoculated 2 days after application, compared to untreated, read-out: disease control
Protocol: Fungicidal Activity Against Phaeosphaeria nodorum (Septoria nodorum)/Wheat/Leaf Disc Preventative (Glume Blotch) Wheat leaf segments cv. Kanzler were placed on agar in a multiwell plate (24-well format) and sprayed with the formulated test compound diluted in water. The leaf disks were inoculated with a spore suspension of the fungus 2 days after application. The inoculated test leaf disks were incubated at 20° C. and 75% rh under a light regime of 12 h light/12 h darkness in a climate cabinet and the activity of a compound was assessed as percent disease control compared to untreated when an appropriate level of disease damage appears in untreated check leaf disks (5-7 days after application).

[3] = tested on: Botryotinia fuckeliana (Botrytis cinerea); test: Fungicidal activity against Botryotinia fuckeliana (Botrytis cinerea) / liquid culture (gray mould); format: cell-based; conditions: 3-4 days after application, read-out: disease control (inhibition of growth, photometrically)
Protocol: Fungicidal Activity Against Botryotinia fuckeliana (Botrytis cinerea)/Liquid Culture (Gray Mould) Conidia of the fungus from cryogenic storage were directly mixed into nutrient broth (Vogels broth). After placing a (DMSO) solution of test compound into a microtiter plate (96-well format), the nutrient broth containing the fungal spores was added. The test plates were incubated at 24° C. and the inhibition of growth was determined photometrically 3-4 days after application.

[4] = tested on: Glomerella lagenarium (Colletotrichum lagenarium); test: Fungicidal activity against Glomerella lagenarium (Colletotrichum lagenarium) / liquid culture (anthracnose); format: cell-based; conditions: Colletotrichum orbiculare, 3-4 days after application, read-out: disease control (inhibition of growth, photometrically)
Protocol: Fungicidal Activity Against Glomerella lagenarium (Colletotrichum lagenarium)/Liquid Culture (Anthracnose) Conidia of the fungus from cryogenic storage were directly mixed into nutrient broth (PDB potato dextrose broth). After placing a (DMSO) solution of test compound into a microtiter plate (96-well format), the nutrient broth containing the fungal spores was added. The test plates were incubated at 24° C. and the inhibition of growth was measured photometrically 3-4 days after application.

[5] = tested on: Thanatephorus cucumeris (Rhizoctonia solani); test: Fungicidal activity against Thanatephorus cucumeris (Rhizoctonia solani) / liquid culture (foot rot, damping-off); format: cell-based; conditions: 3-4 days after application, read-out: disease control (inhibition of growth, photometrically)
Protocol: Fungicidal Activity Against Thanatephorus cucumeris (Rhizoctonia solani)/Liquid Culture (Foot Rot, Damping-Off) Mycelia fragments of a newly grown liquid culture of the fungus were directly mixed into nutrient broth (PDB potato dextrose broth). After placing a (DMSO) solution of the test compounds into a microtiter plate (96-well format), the nutrient broth containing the fungal material was added. The test plates were incubated at 24° C. and the inhibition of growth was determined photometrically 3-4 days after application.

[6] = tested on: Puccinia recondita f. sp. tritici; test: Fungicidal activity against Puccinia recondita f. sp. tritici / wheat / leaf disc preventative (brown rust); format: in vivo; conditions: foliar, wheat leaf segments, inoculated 1 day after application, compared to untreated, read-out: disease control
Protocol: Fungicidal Activity Against Puccinia recondita f. sp. tritici/Wheat/Leaf Disc Preventative (Brown Rust) Wheat leaf segments cv. Kanzler were placed on agar in multiwell plates (24-well format) and sprayed with the formulated test compound diluted in water. The leaf disks were inoculated with a spore suspension of the fungus 1 day after application. The inoculated leaf segments were incubated at 19° C. and 75% rh under a light regime of 12 h light/12 h darkness in a climate cabinet and the activity of a compound was assessed as percent disease control compared to untreated when an appropriate level of disease damage appears in untreated check leaf segments (7-9 days after application).

[7] = tested on: Mycosphaerella graminicola (Septoria tritici); test: Fungicidal activity against Mycosphaerella graminicola (Septoria tritici) / liquid culture (Septoria blotch); format: cell-based; conditions: Zymoseptoria tritici, 4-5 days after application, read-out: disease control (inhibition of growth, photometrically)
Protocol: Fungicidal Activity Against Mycosphaerella graminicola (Septoria tritici)/Liquid Culture (Septoria Blotch) Conidia of the fungus from cryogenic storage were directly mixed into nutrient broth (PDB potato dextrose broth). After placing a (DMSO) solution of test compound into a microtiter plate (96-well format), the nutrient broth containing the fungal spores was added. The test plates were incubated at 24° C. and the inhibition of growth was determined photometrically 4-5 days after application.

[8] = tested on: Mycosphaerella arachidis (Cercospora arachidicola); test: Fungicidal activity against Mycosphaerella arachidis (Cercospora arachidicola) / liquid culture (early leaf spot); format: cell-based; conditions: 4-5 days after application, read-out: disease control (inhibition of growth, photometrically)
Protocol: Fungicidal Activity Against Mycosphaerella arachidis (Cercospora arachidicola)/Liquid Culture (Early Leaf Spot) Conidia of the fungus from cryogenic storage were directly mixed into nutrient broth (PDB potato dextrose broth). After placing a (DMSO) solution of test compound into a microtiter plate (96-well format), the nutrient broth containing the fungal spores was added. The test plates were incubated at 24° C. and the inhibition of growth was determined photometrically 4-5 days after application.

[9] = tested on: Monographella nivalis (Microdochium nivale); test: Fungicidal activity against Monographella nivalis (Microdochium nivale) / liquid culture (foot rot cereals); format: cell-based; conditions: 4-5 days after application, read-out: disease control (inhibition of growth, photometrically)
Protocol: Fungicidal Activity Against Monographella nivalis (Microdochium nivale)/Liquid Culture (Foot Rot Cereals) Conidia of the fungus from cryogenic storage were directly mixed into nutrient broth (PDB potato dextrose broth). After placing a (DMSO) solution of test compound into a microtiter plate (96-well format), the nutrient broth containing the fungal spores was added. The test plates were incubated at 24° C. and the inhibition of growth was determined photometrically 4-5 days after application.

c1ccc(Cc2cccc(-c3ncc4c(n3)C3CCC4C3)n2)cc1 (stereo not drawn) [Compound 26]
≥ 80%: inhibition at 200 ppm (Gaeumannomyces graminis) | pest or weed control at 200 ppm (Pyrenophora teres) | pest or weed control at 200 ppm [1] | pest or weed control at 200 ppm [2] | inhibition at 200 ppm [3] | inhibition at 200 ppm [4] | inhibition at 200 ppm [5] | pest or weed control at 200 ppm [6] | inhibition at 200 ppm [7] | inhibition at 200 ppm [8] | inhibition at 200 ppm [9]

COc1ccc(Cc2cccc(-c3ncc4c(n3)CCCC4)n2)cn1 [Compound 41]
≥ 80%: inhibition at 200 ppm (Gaeumannomyces graminis) | pest or weed control at 200 ppm (Pyrenophora teres) | pest or weed control at 200 ppm [1] | pest or weed control at 200 ppm [2] | inhibition at 200 ppm [3] | inhibition at 200 ppm [4] | inhibition at 200 ppm [5] | pest or weed control at 200 ppm [6] | inhibition at 200 ppm [7] | inhibition at 200 ppm [8] | inhibition at 200 ppm [9]

COc1ccccc1Cc1cccc(-c2ncc3c(n2)CCCCC3)n1 [Compound 34]
≥ 80%: inhibition at 200 ppm (Gaeumannomyces graminis) | pest or weed control at 200 ppm (Pyrenophora teres) | pest or weed control at 200 ppm [1] | pest or weed control at 200 ppm [2] | inhibition at 200 ppm [3] | inhibition at 200 ppm [4] | inhibition at 200 ppm [5] | pest or weed control at 200 ppm [6] | inhibition at 200 ppm [7] | inhibition at 200 ppm [8] | inhibition at 200 ppm [9]

c1ccc(Cc2cccc(-c3ncc4c(n3)CCCCC4)n2)cc1 [Compound 29, 2-(6-Benzyl-pyridin-2-yl)-6,7,8,9-tetrahydro-5H-cycloheptapyrimidine]
≥ 80%: inhibition at 200 ppm (Gaeumannomyces graminis) | pest or weed control at 200 ppm (Pyrenophora teres) | pest or weed control at 200 ppm [1] | pest or weed control at 200 ppm [2] | inhibition at 200 ppm [3] | inhibition at 200 ppm [4] | inhibition at 200 ppm [5] | pest or weed control at 200 ppm [6] | inhibition at 200 ppm [7] | inhibition at 200 ppm [8] | inhibition at 200 ppm [9]

COc1ccc(C(C)c2cccc(-c3ncc4c(n3)CCCC4)n2)nc1 (stereo not drawn) [Compound 44]
≥ 80%: inhibition at 200 ppm (Gaeumannomyces graminis) | pest or weed control at 200 ppm (Pyrenophora teres) | pest or weed control at 200 ppm [1] | pest or weed control at 200 ppm [2] | inhibition at 200 ppm [3] | inhibition at 200 ppm [4] | inhibition at 200 ppm [5] | pest or weed control at 200 ppm [6] | inhibition at 200 ppm [7] | inhibition at 200 ppm [8] | inhibition at 200 ppm [9]

COc1ccc(Cc2cccc(-c3ncc4c(n3)CC(C)(C)CC4)n2)cc1 [Compound 37]
≥ 80%: inhibition at 200 ppm (Gaeumannomyces graminis) | pest or weed control at 200 ppm (Pyrenophora teres) | pest or weed control at 200 ppm [1] | pest or weed control at 200 ppm [2] | inhibition at 200 ppm [3] | inhibition at 200 ppm [4] | inhibition at 200 ppm [5] | pest or weed control at 200 ppm [6] | inhibition at 200 ppm [7] | inhibition at 200 ppm [8] | inhibition at 200 ppm [9]

Source: US20130281467A1, “NOVEL MICROBICIDES” (SYNGENTA PARTICIPATIONS AG, priority 2010, published 2013)
